Assay results published in patent US11931374B2, “Adenosine receptor modulators for the treatment of circadian rhythm disorders” (OXFORD UNIVERSITY INNOVATION LIMITED, priority 2016, dated 2024).
“Also recorded” adds a separate entry of the source.

How the values were obtained:
[1] = tested on: Per1/2; experiment: Sleep deprivation, Per1/2 expression within the SCN; type: in vivo; settings: sleep deprivation decreases Per1/2 expression
[2] = tested on: Fos; experiment: Fos mRNA after drug treatment; type: cell-based; settings: 10 uM
Procedure: Total RNA was extracted using the microRNeasy column method (Qiagen, Hilden, Germany). Quality and quantity of RNA were measured using an Agilent Bioanalyzer and a Nanodrop1000 (Thermo Fisher Scientific, Waltham, MA USA), respectively.
RNA samples were prepared as described for microarray hybridisation. cDNA was synthesized with a qScript cDNA synthesis kit (Quanta Biosciences, Gaithersburg, MD), and quantitative PCR (qPCR) was conducted with Sybr green I and an SDS7700 thermal cycler (Applied Biosystems, Foster City, CA). Relative quantification of transcript levels was done as described previously (Peirson et al., Nucleic Acids Res. 2003 Jul. 15; 31(14):e73.). The geometric mean of a minimum of three housekeeping genes was used for normalization (Gapdh, ActB, GusB and Rps9 for example).

[3] = tested on: C57Bl/6 mice; experiment: Re-entrainment in a jet-lag protocol; type: in vivo
Procedure: Animals were housed under a reversed 12:12 LD cycle (400 lux from white LED lamps) with food and water ad libitum. For phase-shifting studies, C57Bl/6 mice were maintained on running wheels in light tight chambers on a 12:12 LD cycle (400 lux from white LED lamps) and injected with drug at the indicated time points. The drugs were formulated in a vehicle consisting of 5% Koliphor-HS15 (Sigma-Aldrich, UK) 5% Cyclodextran (Sigma-Aldrich, UK) in 0.9% saline. This vehicle was warmed to 37° C. and the indicated drugs kept at a 100× stock in DMSO and mixed at the appropriate concentration to be administered at approximately 300 ul intraperitoneal injection (n=6 to 10). Where the time point of injection was in the dark, the procedure was conducted under dim red light. Where measuring phase-shifting, the mice were then placed in DD and allowed to free run for 14 days in DD, running wheel activity data was collected and analysed on Clocklab (Actimetrics, Wilmette, IL). […]
Re-entrainment: C57B/6 male mice (80 days or older) were maintained on running wheels in light tight chambers on a 12:12 LD cycle (100 lux from white LED lamps) and injected with drugs as above at ZT6. […] Onset of activity on each day was used to measure phase relative to the LD cycle, data analysed on Clocklab.

[4] = tested on: CREB; experiment: CREB phosphorylation in U2OS cells; type: cell-based
[5] = tested on: STAR-PROM plasmid library; experiment: STAR-PROM transcription factor screening in U2OS cells; type: cell-based
Procedure: This was conducted as previously reported in Gerber et al., Cell. […] Briefly, U2OS cells were cultured in 6-well plates and transfected with 1 ug of the STAR-PROM plasmid library (library structure as in above reference). RNA was extracted at set time points and sequenced for the barcoded luciferase constructs and analysed with Galaxy (https://use.galaxy.org).

[6] = tested on: intracellular levels of cAMP; experiment: cAMP GloSensor assay in U2OS cells; type: cell-based
Procedure: The GloSensor™ cAMP Assay (Promega) was used for detecting changes in the intracellular levels of cAMP. Initially, a Greiner Bio-One 96 Well Plate (white, TC treated) was seeded at 8000 cells per 100 μl well, as described above. After 24 hours, the cells were transfected with the pGloSensor™ cAMP Plasmid using the Viafect transfection reagent as above. Between 24 and 48 hours later, allowing for the accumulation of the biosensor, the medium in the 96 well plate was changed to C02-Independent Medium supplemented with GlutaMAX™ (Life Technologies), 10% fetal bovine serum and 2% GloSensor™ cAMP Reagent. The plate was then stood for 2 hours at room temperature to equilibrate. Following the incubation period, the cells were treated with relevant drugs and their luminescence values were measured after 20 minutes in the BMG FLUOstar OPTIMA Microplate Reader, with forskolin as a positive control, and DMSO as a negative control.

Nc1nc(-c2ccccc2)c2c(n1)-c1cc(OCCN3CCOCC3)ccc1C2=O [JNJ40255293, 2-amino-8-[2-(4-morpholinyl)ethoxy]-4-phenyl-5H-indeno[1,2-d]pyrimidin-5-one]
Per1/2 expression within the SCN [1]: reversed | Fos mRNA [2]: Upregulation | re-entrainment (advance of activity onset) ([3]; 5 mg/kg single intraperitoneal injection at ZT6, LD cycle advanced 6 h): shifted rapidly; also recorded: advanced entrainment more potently than Tasimelteon, KW6002 (specific A2A antagonist) or KW3902 (specific A1 antagonist) | re-entrainment, dose response ([3]; jet-lag protocol, LD cycle advanced 6 h): dose responsively enhanced re-entrainment | CREB phosphorylation [4]: no changes in CREB phosphorylation | clones with significantly increased reporter signal ([5]; BC-STARPROM, 30 uM): 8 clones | response of clone3 reporter ([5]; isolated clone3): responded | cAMP levels [6]: does not elevate cAMP levels | increase in cAMP ([6]; 30 uM): 50%
